We go through two molecules from paper PMC2233693 (The Journal of General Physiology, 2000).

Numbering of substitutions follows the chain as printed. Like-named read-outs stand apart in the source and are kept apart here.

Assay [1] has as its target native olfactory CNG channels. The note with it: cited from earlier work.
Assay [2] concerns the target T1, E340G mutant bovine olfactory CNG channel (Bos taurus, UniProt Q03041, E340G).
T1 sequence (Q03041 1-663 E340G): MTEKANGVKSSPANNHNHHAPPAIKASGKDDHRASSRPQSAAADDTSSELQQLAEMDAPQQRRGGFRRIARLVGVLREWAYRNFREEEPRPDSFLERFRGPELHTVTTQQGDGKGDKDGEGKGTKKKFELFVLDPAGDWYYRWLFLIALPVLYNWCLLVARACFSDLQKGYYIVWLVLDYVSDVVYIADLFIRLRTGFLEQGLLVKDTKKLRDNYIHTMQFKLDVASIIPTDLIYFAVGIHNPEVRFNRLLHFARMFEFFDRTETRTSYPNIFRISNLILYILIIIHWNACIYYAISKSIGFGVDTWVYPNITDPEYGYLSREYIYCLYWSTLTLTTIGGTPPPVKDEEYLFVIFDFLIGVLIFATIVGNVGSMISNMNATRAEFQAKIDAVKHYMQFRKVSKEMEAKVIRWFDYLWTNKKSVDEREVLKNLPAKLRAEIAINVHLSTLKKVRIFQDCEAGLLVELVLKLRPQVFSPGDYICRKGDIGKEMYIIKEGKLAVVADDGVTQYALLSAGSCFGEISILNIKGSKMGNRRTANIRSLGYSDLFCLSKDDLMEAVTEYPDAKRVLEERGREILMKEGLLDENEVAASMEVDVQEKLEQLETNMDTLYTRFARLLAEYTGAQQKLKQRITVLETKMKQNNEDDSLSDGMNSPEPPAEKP
Format: biochemical.

Assay [3] has as its target T2, E340N mutant bovine olfactory CNG channel (Bos taurus, UniProt Q03041, E340N).
T2 sequence (Q03041 1-663 E340N): T1 sequence (Q03041 1-663 E340G) with G340N
It is filed as biochemical. The note with it: for P max (+80 mV) / P max (−80 mV): cGMP.

Assay [4] has as its target T3, E340D mutant bovine olfactory CNG channel (Bos taurus, UniProt Q03041, E340D).
T3 sequence (Q03041 1-663 E340D): T1 sequence (Q03041 1-663 E340G) with G340D
It is filed as biochemical. As to conditions: cGMP.

The mark [5] stands for this setting: 3 μM cGMP, +80 mV, amplitude histogram, Fig. 3.
[6] abbreviates: 100 μM cGMP, +80 mV, amplitude histogram, Fig. 3.
Where [7] appears, read: high level of current determined with respect to low level.

Take `[Ca+2]` [Ca^2+]: the Ki was roughly 2000 µM in assay [1] (read-out: K i for external Ca2+ blockage, frog, +80 mV, ref Dzeja et al. 1999) and 265 µM in assay [1] (read-out: K i for external Ca2+ blockage, frog, −70 mV, ref Dzeja et al. 1999).

`Nc1nc2c(ncn2[C@@H]2O[C@@H]3COP(=O)(O)O[C@H]3[C@H]2O)c(=O)[nH]1` [cGMP]: the “P max (+80 mV)” value in assay [2] (cGMP) was found to be 0.77 ± 0.08; in assay [3] (setting [7]), 0.10 ± 0.07; in assay [3] (low level of current) it was 0.87 ± 0.02; in assay [4] it was 0.985 ± 0.007. Moreover, the “P max (−80 mV)” value in assay [2] (cGMP) is on record as 0.79 ± 0.06; in assay [3] (setting [7]), 0.04 ± 0.01; in assay [3] (low level of current) it was 0.96 ± 0.01; in assay [4] it was 0.987 ± 0.007. Besides, the “L, equilibrium gating constant” value came out at 5.2 ± 1.3 in assay [2] (cGMP, allosteric model fit, mean ± SD) and 66 ± 15 in assay [4] (allosteric model fit, mean ± SD). In addition, the EC50 is 14 ± 5 µM in assay [2] (read-out: K 1/2 (single-channel open probability), cGMP, −80 mV, average) and 11.6 µM in assay [2] (read-out: K 1/2,cG, −80 mV, single patch, Fig. 2 fit). Moreover, the results for the P closed in assay [3] (setting [5]) and in assay [3] (setting [6]) were 0.765 and 0.01, respectively. Also, the “P o,high” value in assay [3] (setting [5]) was determined as 0.015; in assay [3] (setting [6]), 0.065. For the same molecule, the “P o,low” value in assay [3] (setting [6]) turned out to be 0.925.
